Assay results reported in US8680290B2, “Isoxazoline derivatives and their use as herbicides” (Syngenta Limited, priority 2004, dated 2014).
Values belong to the compound of their own block, whether it stands above or below them.

How the values were obtained:
[1] = test system: Monocotyledonous and dicotyledonous test plants; assay: Example B1 herbicidal action, application post-emergence (Table B1a); type: in vivo; conditions: 250 g/ha, evaluated after 3 weeks, scale 0-10
Outline: (§1)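 Visual damage rating, 10 = plant dead and 0 = unharmed, taken at 3 weeks for post-emergence and 4 weeks for pre-emergence treatment. Application by spray of formulated aqueous solution either immediately after sowing or at 8–9 days' growth, with mono- and dicot plants kept in a greenhouse.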

[2] = test system: Monocotyledonous and dicotyledonous test plants; assay: Example B2 herbicidal action, application post-emergence, 96-cell seed trays (Table B2a); type: in vivo; conditions: 1000 g/ha
Description: (§2) Monocotyledonous and dicotyledonous test plants were sown in sterilised standard soil in seed trays each having 96 cells. After one day (pre-emergence) or after 8 to 9 days cultivation (post-emergence) under controlled conditions in a climatic chamber (cultivation at 17/23° C.; 13 hours light; 50-60% humidity; after application at 19/24° C.), the plants were treated with an aqueous spray solution of 1000 mg/l of the active ingredient used (rate of application: […]; incl. 10% DMSO as solvent). The plants were grown on in the climatic chamber until the test was evaluated (10 total damage to plant, 0=no damage to plant) after 9 or 13 days.

[3] = test system: Monocotyledonous and dicotyledonous test plants; assay: Example B1 herbicidal action, application pre-emergence (Table B1b); type: in vivo; conditions: 250 g/ha, evaluated after 4 weeks
Outline: as §1

[4] = test system: Monocotyledonous and dicotyledonous test plants; assay: Example B2 herbicidal action, application pre-emergence, 96-cell seed trays (Table B2b); type: in vivo; conditions: 1000 g/ha
Description: as §2

Compound: CC1(C)CC([S+]([O-])C(Cl)c2c(F)cccc2Cl)=NO1 (single isomer, unassigned) [1.34]
herbicidal damage rating, Abutilon [1]: 3 | herbicidal damage rating, Amaranthus [1]: 5 | herbicidal damage rating, Digitaria [1]: 5 | herbicidal damage rating, Panicum [1]: 8 | herbicidal damage rating, Setaria [1]: 6 | herbicidal damage rating, Sida [1]: 3 | herbicidal action (damage rating 0-10), Agrostis [2]: 8 | herbicidal action (damage rating 0-10), Amaranthus [2]: 5 | herbicidal action (damage rating 0-10), Poa [2]: 8 | herbicidal action (damage rating 0-10), Setaria [2]: 8 | herbicidal action (damage rating 0-10), Amaranthus [3]: 9 | herbicidal action (damage rating 0-10), Digitaria [3]: 9 | herbicidal action (damage rating 0-10), Panicum [3]: 10 | herbicidal action (damage rating 0-10), Setaria [3]: 10 | herbicidal action (damage rating 0-10), Sida [3]: 7

Compound: CC1(C)CC(S(=O)(=O)C(Cl)c2c(F)cccc2Cl)=NO1 (stereo not shown) [1.32]
herbicidal action (damage rating 0-10), Agrostis [2]: 8 | herbicidal action (damage rating 0-10), Amaranthus [2]: 6 | herbicidal action (damage rating 0-10), Poa [2]: 8 | herbicidal action (damage rating 0-10), Setaria [2]: 6

melting point: 135 °C
Compound: CC1(C)CC(S(=O)(=O)C(Br)c2c(F)cccc2F)=NO1 (stereo not shown) [Compound No. 1.19, 3-[bromo-(2,6-difluorophenyl)-methanesulfonyl]-5,5-dimethyl-4,5-dihydroisoxazole]
herbicidal action (damage rating 0-10), Agrostis [4]: 10 | herbicidal action (damage rating 0-10), Digitaria [4]: 9 | herbicidal action (damage rating 0-10), Poa [4]: 10 | herbicidal action (damage rating 0-10), Setaria [4]: 9 | herbicidal damage rating, Abutilon [1]: 6 | herbicidal damage rating, Amaranthus [1]: 5 | herbicidal damage rating, Digitaria [1]: 6 | herbicidal damage rating, Panicum [1]: 5 | herbicidal damage rating, Setaria [1]: 5 | herbicidal damage rating, Sida [1]: 2 | herbicidal action (damage rating 0-10), Amaranthus [3]: 10 | herbicidal action (damage rating 0-10), Digitaria [3]: 10 | herbicidal action (damage rating 0-10), Panicum [3]: 10 | herbicidal action (damage rating 0-10), Setaria [3]: 10 | herbicidal action (damage rating 0-10), Sida [3]: 6

melting point: 129 °C
Compound: CC1(C)CC(S(=O)(=O)C(F)(Cl)c2c(F)cccc2F)=NO1 (stereo not shown) [Compound No. 1.21, 3-[chloro-(2,6-difluoro-phenyl)-fluoro-methanesulfonyl]-5,5-dimethyl-4,5-dihydroisoxazole]
herbicidal action (damage rating 0-10), Agrostis [4]: 10 | herbicidal action (damage rating 0-10), Digitaria [4]: 10 | herbicidal action (damage rating 0-10), Poa [4]: 10 | herbicidal action (damage rating 0-10), Setaria [4]: 9 | herbicidal damage rating, Abutilon [1]: 7 | herbicidal damage rating, Digitaria [1]: 7 | herbicidal damage rating, Panicum [1]: 9 | herbicidal damage rating, Setaria [1]: 7 | herbicidal damage rating, Sida [1]: 5 | herbicidal action (damage rating 0-10), Amaranthus [3]: 10 | herbicidal action (damage rating 0-10), Digitaria [3]: 10 | herbicidal action (damage rating 0-10), Panicum [3]: 10 | herbicidal action (damage rating 0-10), Setaria [3]: 10 | herbicidal action (damage rating 0-10), Sida [3]: 9

melting point: 175 °C
Compound: CC1(C)CC(S(=O)(=O)C(C(N)=O)c2c(F)cccc2F)=NO1 (stereo not shown) [Compound No. 1.23, 2-(2,6-difluoro-phenyl)-2-(5,5-dimethyl-4,5-dihydroisoxazole-3-sulfonyl)-acetamide]
herbicidal action (damage rating 0-10), Agrostis [4]: 10 | herbicidal action (damage rating 0-10), Digitaria [4]: 8 | herbicidal action (damage rating 0-10), Poa [4]: 10 | herbicidal action (damage rating 0-10), Setaria [4]: 8 | herbicidal action (damage rating 0-10), Amaranthus [3]: 7 | herbicidal action (damage rating 0-10), Digitaria [3]: 4 | herbicidal action (damage rating 0-10), Panicum [3]: 10 | herbicidal action (damage rating 0-10), Setaria [3]: 7 | herbicidal action (damage rating 0-10), Sida [3]: 0

melting point: 156 °C
Compound: CC1(C)CC(S(=O)(=O)C(I)c2c(F)cccc2F)=NO1 (stereo not shown) [Compound No. 1.25, 3-[(2,6-difluoro-phenyl)-iodo-methanesulfonyl]-5,5-dimethyl-4,5-dihydroisoxazole]
herbicidal action (damage rating 0-10), Agrostis [4]: 10 | herbicidal action (damage rating 0-10), Digitaria [4]: 9 | herbicidal action (damage rating 0-10), Poa [4]: 10 | herbicidal action (damage rating 0-10), Setaria [4]: 8 | herbicidal damage rating, Abutilon [1]: 5 | herbicidal damage rating, Digitaria [1]: 4 | herbicidal damage rating, Panicum [1]: 3 | herbicidal damage rating, Setaria [1]: 3 | herbicidal damage rating, Sida [1]: 4 | herbicidal action (damage rating 0-10), Amaranthus [3]: 10 | herbicidal action (damage rating 0-10), Digitaria [3]: 10 | herbicidal action (damage rating 0-10), Panicum [3]: 10 | herbicidal action (damage rating 0-10), Setaria [3]: 10 | herbicidal action (damage rating 0-10), Sida [3]: 3

melting point: 126 °C
Compound: CC1(C)CC(S(=O)(=O)C(Cl)(Cl)c2c(F)cccc2F)=NO1 [Compound No. 1.26, 3-[dichloro-(2,6-difluoro-phenyl)-methanesulfonyl]-5,5-dimethyl-4,5-dihydroisoxazole]
herbicidal action (damage rating 0-10), Agrostis [4]: 10 | herbicidal action (damage rating 0-10), Digitaria [4]: 10 | herbicidal action (damage rating 0-10), Poa [4]: 10 | herbicidal action (damage rating 0-10), Setaria [4]: 9 | herbicidal damage rating, Abutilon [1]: 4 | herbicidal damage rating, Digitaria [1]: 4 | herbicidal damage rating, Panicum [1]: 3 | herbicidal damage rating, Setaria [1]: 5 | herbicidal action (damage rating 0-10), Amaranthus [3]: 10 | herbicidal action (damage rating 0-10), Digitaria [3]: 9 | herbicidal action (damage rating 0-10), Panicum [3]: 10 | herbicidal action (damage rating 0-10), Setaria [3]: 10 | herbicidal action (damage rating 0-10), Sida [3]: 4

melting point: 116 °C
Compound: CC(=O)C(c1c(F)cccc1F)S(=O)(=O)C1=NOC(C)(C)C1 (stereo not shown) [Compound No. 1.27, 1-(2,6-difluorophenyl)-1-(5,5-dimethyl-4,5-dihydroisoxazole-3-sulfonyl)-propan-2-one]
herbicidal action (damage rating 0-10), Agrostis [4]: 10 | herbicidal action (damage rating 0-10), Digitaria [4]: 9 | herbicidal action (damage rating 0-10), Poa [4]: 9 | herbicidal action (damage rating 0-10), Setaria [4]: 9 | herbicidal damage rating, Abutilon [1]: 4 | herbicidal damage rating, Digitaria [1]: 2 | herbicidal damage rating, Panicum [1]: 5 | herbicidal damage rating, Setaria [1]: 3 | herbicidal damage rating, Sida [1]: 4 | herbicidal action (damage rating 0-10), Amaranthus [3]: 7 | herbicidal action (damage rating 0-10), Digitaria [3]: 4 | herbicidal action (damage rating 0-10), Panicum [3]: 9 | herbicidal action (damage rating 0-10), Setaria [3]: 5 | herbicidal action (damage rating 0-10), Sida [3]: 2

melting point: 102 °C
Compound: Cc1cccc(C(Cl)S(=O)(=O)C2=NOC(C)(C)C2)c1 (stereo not shown) [Compound No. 1.30, 3-[chloro-m-tolyl-methanesulfonyl]-5,5-dimethyl-4,5-dihydroisoxazole]
herbicidal action (damage rating 0-10), Agrostis [4]: 10 | herbicidal action (damage rating 0-10), Digitaria [4]: 10 | herbicidal action (damage rating 0-10), Poa [4]: 10 | herbicidal action (damage rating 0-10), Setaria [4]: 10 | herbicidal action (damage rating 0-10), Amaranthus [3]: 0 | herbicidal action (damage rating 0-10), Digitaria [3]: 9 | herbicidal action (damage rating 0-10), Panicum [3]: 10 | herbicidal action (damage rating 0-10), Setaria [3]: 9 | herbicidal action (damage rating 0-10), Sida [3]: 2

melting point: 89 °C
Compound: Cc1cccc(C(Cl)(Cl)S(=O)(=O)C2=NOC(C)(C)C2)c1 [Compound No. 1.31, 3-[dichloro-m-tolyl-methanesulfonyl]-5,5-dimethyl-4,5-dihydroisoxazole]
herbicidal action (damage rating 0-10), Agrostis [4]: 9 | herbicidal action (damage rating 0-10), Digitaria [4]: 9 | herbicidal action (damage rating 0-10), Poa [4]: 9 | herbicidal action (damage rating 0-10), Setaria [4]: 10 | herbicidal damage rating, Abutilon [1]: 3 | herbicidal damage rating, Digitaria [1]: 1 | herbicidal damage rating, Panicum [1]: 7 | herbicidal damage rating, Setaria [1]: 0 | herbicidal damage rating, Sida [1]: 7 | herbicidal action (damage rating 0-10), Amaranthus [3]: 0 | herbicidal action (damage rating 0-10), Digitaria [3]: 9 | herbicidal action (damage rating 0-10), Panicum [3]: 9 | herbicidal action (damage rating 0-10), Setaria [3]: 7 | herbicidal action (damage rating 0-10), Sida [3]: 0

melting point: 119 °C
Compound: CC1(C)CC(S(=O)(=O)C(Cl)(Br)c2c(F)cccc2F)=NO1 (stereo not shown) [Compound No. 1.53, 3-[bromo-chloro-(2,6-difluorophenyl)-methanesulfonyl]-5,5-dimethyl-4,5-dihydroisoxazole]
herbicidal damage rating, Abutilon [1]: 5 | herbicidal damage rating, Amaranthus [1]: 7 | herbicidal damage rating, Digitaria [1]: 7 | herbicidal damage rating, Panicum [1]: 7 | herbicidal damage rating, Setaria [1]: 7 | herbicidal damage rating, Sida [1]: 2 | herbicidal action (damage rating 0-10), Amaranthus [3]: 9 | herbicidal action (damage rating 0-10), Digitaria [3]: 10 | herbicidal action (damage rating 0-10), Panicum [3]: 10 | herbicidal action (damage rating 0-10), Setaria [3]: 10 | herbicidal action (damage rating 0-10), Sida [3]: 5

melting point: 99 °C
Compound: COc1cc(C(F)S(=O)(=O)C2=NOC(C)(C)C2)on1 (stereo not shown) [Compound No. 5.03, 5-[(5,5-dimethyl-4,5-dihydroisoxazole-3-sulfonyl)-fluoromethyl]-3-methoxy-isoxazole]
herbicidal action (damage rating 0-10), Amaranthus [3]: 10 | herbicidal action (damage rating 0-10), Setaria [3]: 9 | herbicidal action (damage rating 0-10), Sida [3]: 2
